Legend:
mice [1] = test: PGE2-induced diarrhea in mice; format: in vivo
mice [2] = conditions: mouse, in vivo, po
mice [3] = conditions: mouse, in vivo
mice [4] = test: animal or person; conditions: Mus musculus, iv, read-out: Analgesia, tail flick test in mice, i.v., ED50

CN(C)C(=O)C(CCN1CCC(O)(c2ccc(Cl)cc2)CC1)(c1ccccc1)c1ccccc1 [Loperamide, loperamide]
ED50 (mice [1]; Mus musculus, iv, read-out: ED50 Value (mg/kg) i.v.): 0.41 mg/kg
PGE2-diarrhea, mice, ED50 i.v. (mice [1]; mouse, in vivo, iv): ED50 i.v. = 0.41 μM
PGE2-diarrhea, mice, ED50 p.o. (mice [1]; mouse, in vivo, po): ED50 p.o. = 9.34 μM
Carbon passage, mice, ED50 p.o. (mice [2]): ED50 p.o. = ˜15 μM
action on the central nervous system (in words) (mice [3]): always has a measurable action
tail flick test in mice, i.v.: toxic side effects from (mice [3]; iv): toxic from 0.464
ED50 (mice [4]): > 0.562 mg/kg

Source: patent publication US20040229872A1, “Substituted cyclohexane-1,4-diamine compounds with anti-diarrhea and peripheral analgesic activity” (Gruenenthal GmbH, priority 2001, published 2004)
